Assay results: ChEMBL document CHEMBL5352505, “Targeting MET: Discovery of Small Molecule Inhibitors as Non-Small Cell Lung Cancer Therapy” (J Med Chem, 2023)
One block for each compound: values may come before it.

Assays:
MKN-45 [1] = assay: Antiproliferative activity against human MKN-45 cells assessed as inhibition of cell growth measured after 72 hrs by Cell Titer blue assay; assay type: functional, cell-based; settings: MKN-45, 72 h
[2] = biological target: T1, Hepatocyte growth factor receptor (Homo sapiens, UniProt P08581); assay: Inhibition of human GST tagged c-Met CD expressed in Sf9 cells using poly(Glu:Tyr) as substrate incubated for 5 mins in presence of ATP by horseradish peroxidase based ELISA method
CT26 = assay: Antiproliferative activity against CT26 cells assessed as inhibition of cell growth; assay type: functional, cell-based; settings: Mus musculus
[3] = biological target: T1, Hepatocyte growth factor receptor; assay: Inhibition of MET (unknown origin)
EBC-1 [4] = assay: cells; settings: Homo sapiens
MKN-45 [5] = assay: cells; settings: Homo sapiens
EBC-1 [6] = assay: Antiproliferative activity against human EBC-1 cells assessed as inhibition of cell growth measured after 72 hrs by CellTiter-Glo assay; assay type: functional, cell-based; settings: EBC-1, 72 h
MKN-45 [7] = assay: Antiproliferative activity against human MKN-45 cells assessed as inhibition of cell growth measured after 72 hrs by CellTiter-Glo assay; assay type: functional, cell-based; settings: MKN-45, 72 h
[8] = Oral bioavailability in mouse; assay type: ADME, organism-based; settings: in vivo
MHCC97H = assay: cells; settings: Homo sapiens, 72 h
[9] = Metabolic stability in rat liver microsomes assessed as half life; assay type: ADME, Microsome
[10] = Metabolic stability in human liver microsomes assessed as half life; assay type: ADME, Microsome
[11] = Metabolic stability in mouse liver microsomes assessed as half life; assay type: ADME, Microsome
EBC-1 [12] = assay: Antiproliferative activity against human EBC-1 cells assessed as inhibition of cell growth measured after 3 days by CellTiter-Glo assay; assay type: functional, cell-based; settings: EBC-1, 72 h
Hs746T [13] = assay: Antiproliferative activity against human Hs746T cells assessed as inhibition of cell growth measured after 4 days by CellTiter-Glo assay; assay type: functional, cell-based; settings: 96 h
SNU-5 = assay: cells; settings: Homo sapiens
Hs746T [14] = assay: cells; settings: Homo sapiens
GTL 16 cell line = assay: Antiproliferative activity against human GTL 16 cell line assessed as inhibition of cell growth; assay type: functional, cell-based
A549 [15] = assay: Antiproliferative activity against human A549 cells assessed as inhibition of cell growth; assay type: functional, cell-based
NCI-H1993 = assay: Antiproliferative activity against human NCI-H1993 cells assessed as inhibition of cell growth; assay type: functional, cell-based
NCI-H1703 = assay: Antiproliferative activity against human NCI-H1703 cells assessed as inhibition of cell growth; assay type: functional, cell-based
MKN-45 [16] = assay: Antiproliferative activity against human MKN-45 cells assessed as inhibition of cell growth measured after 48 hrs by MTS assay; assay type: functional, cell-based; settings: MKN-45, 48 h
A549 [17] = assay: Antiproliferative activity against human A549 cells assessed as inhibition of cell growth measured after 48 hrs by MTS assay; assay type: functional, cell-based; settings: A549, 48 h
NCI-H441 = assay: Antiproliferative activity against human NCI-H441 cells assessed as inhibition of cell growth measured after 48 hrs by MTS assay; assay type: functional, cell-based; settings: NCI-H441, 48 h
NCI-H460 = assay: Antiproliferative activity against human NCI-H460 cells assessed as inhibition of cell growth measured after 48 hrs by MTS assay; assay type: functional, cell-based; settings: NCI-H460, 48 h

SMILES: COc1cc2c(Oc3ccc(-c4cnc(Nc5ccc(F)cc5)n(C)c4=O)nc3)ccnc2cc1OCCCN1CCOCC1
IC50 (CT26): 59 nM

SMILES: [2H]c1ccc2cc(C(F)(F)c3nnc4ccc(-c5cnn(C)c5)nn34)ccc2n1
IC50 (EBC-1 [4]): 17 nM
IC50 (MKN-45 [5]): 25 nM

SMILES: Fc1ccc(Cl)c(C2(c3n[nH]c4ncc(-c5cnn(C6CCNCC6)c5)cc34)CC2)c1Cl
IC50 (EBC-1 [6]): 1190 nM
IC50 (MKN-45 [7]): 670 nM

SMILES: C[C@H]1CNC(=O)c2c(N)nn3ccc(nc23)NCc2c(ccc(F)c2C#N)O1
IC50 (MKN-45 [5]): 297 nM

SMILES: CCN1Cc2c(ccc(F)c2C#N)O[C@H](C)CNC(=O)c2c(N)nn3ccc1nc23
IC50 (MKN-45 [5]): 251 nM

SMILES: [O-][S+](c1c(Cl)ccc(F)c1Cl)c1c[nH]c2ncc(-c3cnn(C4CCNCC4)c3)cc12 (centres undefined)
IC50 (EBC-1 [6]): 1590 nM
IC50 (MKN-45 [7]): 1490 nM

SMILES: CN1CCN(Cc2ccc(-c3cnc(N4CCOC(Cn5nnc6ncc(-c7cnn(C)c7)nc65)C4)nc3)cc2)CC1 (centres undefined)
IC50 (SNU-5): 4.34 nM
IC50 (EBC-1 [4]): 2.22 nM
IC50 (MKN-45 [5]): 3.18 nM
IC50 (Hs746T [14]): 2 nM

SMILES: CCOc1ccn(-c2ccc(F)cc2)c(=O)c1C(=O)Nc1ccc(Oc2ccnc(N)c2Cl)c(F)c1 [BMS-777607]
IC50 (GTL 16 cell line): 100 nM

SMILES: CCN1Cc2c(ccc(F)c2C#N)O[C@@H](C)CNC(=O)c2c(N)nn3ccc1nc23 [ELZOVANTINIB]
IC50 (SNU-5): 0.17 nM
IC50 (MKN-45 [5]): 0.2 nM

SMILES: Cn1cc(-c2ccc3nnc(C(F)(F)c4ccc5ncccc5c4)n3n2)cn1 [JNJ-38877605]
IC50 (EBC-1 [4]): 8.4 nM
IC50 (MKN-45 [5]): 18.6 nM

Continued, in another order:

IC50 (MKN-45 [1]): 150 nM
SMILES: C[C@@H](Oc1cc(C(=O)Nc2ccc(C(=O)N3CCN(C)CC3)cc2)nnc1N)c1c(Cl)ccc(F)c1Cl

IC50 [2]: 10 nM
SMILES: Cc1[nH]c(/C=C2\C(=O)Nc3ccc(S(=O)(=O)N(C)c4cccc(Cl)c4)cc32)c(C)c1C(=O)N1CCN(C)CC1

IC50 [3]: 2 nM
SMILES: COc1ccc2c(Oc3ccc(NC(=O)c4c(C)n(CC(C)(C)O)n(-c5ccccc5)c4=O)nc3)ccnc2c1

bioavailability [8]: 104%
IC50 (MHCC97H): 37 nM
SMILES: [2H]C([2H])[C@]([2H])(c1cccc(-c2ncc(OCC3CCN(C)CC3)cn2)c1)n1nc(-c2cccc(C#N)c2)ccc1=O

half-life [9]: 36.5 min
half-life [10]: 62.1 min
IC50 (MHCC97H): 8.8 nM
half-life [11]: 49.1 min
SMILES: C[C@H](c1cccc(-c2ncc(OCC3CCN(C)CC3)cn2)c1)n1cc(-c2cc(C#N)ccn2)cc(F)c1=O

bioavailability [8]: 82.3%
SMILES: CC(C)(O)CN1CCC(COc2cnc(-c3cccc(Cn4c(=O)ccn5c6cc(C#N)ccc6nc45)c3)nc2)CC1
IC50 (EBC-1 [12]): 4.81 nM
IC50 (Hs746T [13]): 1.5 nM

IC50 (SNU-5): 6.2 nM
IC50 (EBC-1 [4]): 24 nM
IC50 (MKN-45 [5]): 37 nM
IC50 (Hs746T [14]): 23 nM
SMILES: CN1CCN(C2CCN(C(=O)Nc3cc(Oc4ccc(NC(=O)C5(C(=O)Nc6ccc(F)cc6)CC5)c(F)c4)ccn3)CC2)CC1 [GOLVATINIB]

IC50 (A549 [15]): 628 nM
IC50 (NCI-H1993): 9.28 nM
IC50 (NCI-H1703): 72.9 nM
SMILES: Cc1ccc(C(=O)Nc2ccc(Oc3cc4cnn(C)c4cc3-c3cn[nH]c3)c(F)c2)c(=O)n1-c1ccc(F)cc1 [MERESTINIB]

IC50 (SNU-5): 60 nM
IC50 (MKN-45 [5]): 7 nM
IC50 (Hs746T [14]): 140 nM
SMILES: Cc1c(C(=O)Nc2ccc(Oc3ccnc4cc(OCC(C)(C)O)ccc34)c(F)c2)c(=O)n(-c2ccccc2)n1C [NINGETINIB]

IC50 (MKN-45 [16]): 580 nM
IC50 (A549 [17]): 590 nM
IC50 (NCI-H441): 300 nM
IC50 (NCI-H460): 600 nM
SMILES: O=C1NC(=O)[C@@H](c2cn3c4c(cccc24)CCC3)[C@@H]1c1c[nH]c2ccccc12 [TIVANTINIB]
